Here are results for 2 compounds from patent US5762956A, “Transdermal contraceptive delivery system and process” (priority 1996, dated 1998).

Structures are written as SMILES.

One data set concerns Rabbit Skin. Put plainly: Residual drug assay of patches from dermal toxicity test (daily delivery rate into rabbit). To be noted: for in vivo delivery rate compared with in vitro rate: rabbit vs in vitro; for Daily Delivery Rate: rabbit, N = 6, ± S.D. The method, then:
The test consists of an one-week primary skin irritation study on six rabbits followed by histopathological examination on each patch application. Both medicated and placebo patches of this TCDS formulation were tested on either intact or abraded skin. Based on the Draize Scale Scoring Method, the primary dermal irritation index (PDII) was given to each patch application site at 24 and 72 hours following the 7 days application period. The patches used in the primary skin irritation test were retrieved for residual drug assay to determine the amount of drugs delivered into the test animal.

A short description of data set [1]: In-vitro drug permeation study, human cadaver skin, Valia-Chien cell, HPLC. The format is in vitro ADME. To be noted: from 10 cm^2 TCDS patch of Example 1, steady state. The method, then:
The samples taken from the receptor compartment of the diffusion cell were analyzed by high performance liquid chromatography.
The skin permeation flux of each drug was subsequently calculated from the steady state of the permeation profile.

A short description of data set [2]: Phase I residual drug assay of used patches (daily delivery rate). Particulars: for relationship between daily delivery rate and dosage: 1, 2 or 3 × 10 cm^2 TCDS patches; for Daily Delivery Rate: ± S.D. The text has this: In this study, healthy female subjects of child-bearing age were randomly divided into 4 groups in a 4-way parallel study design (See Table 5). The study consists of three menstrual cycles which are sequentially arranged as pre-treatment, treatment and post-treatment cycles. During the pre-treatment cycle, the 48 recruited subjects were given placebo TCDS patches to study the wearability (including skin irritation and adhesion tests) while they were being screened against the inclusion/exclusion criteria specified in the clinical protocol. During the treatment cycle, each of the […] in Group A, B and C received weekly application of 1, 2 or 3 pieces of 10 cm^2 TCDS patches, respectively, while each subject in Group D received one oral contraceptive pill (each pill contains 150 μg of levonorgestrel and 35 μg of ethynyl estradiol) per day as reference.

A short description of data set [3]: Phase I serum levonorgestrel by radioimmunoassay. The format is in vivo, human (fertile Chinese women). Particulars: Groups B and C, three weeks of patch application. The method, then:
Blood samples obtained from these three cycles of studies were assayed by radioimmunoassay (RIA) methods for their serum concentration of levonorgestrel, estradiol, progesterone, luteinizing hormone (LH) and follicle stimulating hormone (FSH). Ultrasonic measurement of follicle size and endometrium thickness measurement were also performed during the mid-treatment cycle. Bioavailability of levonorgestrel was assessed by the serum levonorgestrel profile of each subject group. Suppression of post-ovulatory progesterone peak and mid-cycle surges of LH and FSH provided hormonal indications of ovulation inhibition.

For `C[C@]12CC[C@@H]3c4ccc(O)cc4CC[C@H]3[C@@H]1CC[C@@H]2O` [17-beta-estradiol], the “in vivo delivery rate compared with in vitro rate” value in the data set on Rabbit Skin is reported as “higher than skin permeation rate obtained in the in vitro study”. For the same compound, the “Daily Delivery Rate” value with Rabbit Skin (abraded skin) was 35.1 ± 26.70 µg/day; in the data set on Rabbit Skin (intact skin) it was 37.0 ± 19.77 µg/day; in data set [2] (Group A: 1 × 10 cm^2 patch/week), 42.1 ± 16.32 µg/day; in data set [2] (Group B: 2 × 10 cm^2 patch/week) it was 89.7 ± 28.4 µg/day; in data set [2] (Group C: 3 × 10 cm^2 patch/week), 110.4 ± 28.61 µg/day. Moreover, the “skin permeation flux / amount delivered” value in data set [1] was approximately 28.8 µg/day. In addition, in data set [2], the “relationship between daily delivery rate and dosage” value was “established only for the dosages of the first and second pieces of 10 cm^2 TCDS patches”.

Turning to `C#C[C@]1(O)CC[C@H]2[C@@H]3CCC4=CC(=O)CC[C@@H]4[C@H]3CC[C@@]21CC` [Levonorgestrel, levonorgestrel], in the data set on Rabbit Skin, the “in vivo delivery rate compared with in vitro rate” value is “seems to correlate very well with the in vitro delivery rate”. In addition, in data set [3], the “serum concentration of levonorgestrel versus target concentration” value is recorded as “above the target concentration throughout the three weeks of patch application”. Moreover, the “skin permeation flux / amount delivered” value in data set [1] was “about 60.0±9.42 μg/day”. Further, the “relationship between daily delivery rate and dosage” value in data set [2] is “linearly proportional to the increase in dosage of TCDS patches”.
